Experimental data from the kinase profiling compilation of Christmann-Franck et al. (2016).

How the values were obtained:
Experiment in all cases: radiometric filter-binding kinase assay, Kinase HotSpot
Conditions in all cases: compound 0.5 µM; ATP 10 µM
CAMK2G (human) = CAMK2G (human) (UniProt Q13555)
MAPK12 (human) = MAPK12 (human) (UniProt P53778)
GSK3A (human) = GSK3A (human) (UniProt P49840)
OXSR1 (human) = OXSR1 (human) (UniProt O95747)
DMPK (human) = DMPK (human) (UniProt Q09013)
AKT1 (human) = AKT1 (human) (UniProt P31749)
CDC42BPB (human) = CDC42BPB (human) (UniProt Q9Y5S2)
PIM3 (human) = PIM3 (human) (UniProt Q86V86)
SRPK3 (human) = SRPK3 (human) (UniProt Q9UPE1)
PBK (human) = PBK (human) (UniProt Q96KB5)
Chain of PBK (human) (Q96KB5 whole entry, looked up): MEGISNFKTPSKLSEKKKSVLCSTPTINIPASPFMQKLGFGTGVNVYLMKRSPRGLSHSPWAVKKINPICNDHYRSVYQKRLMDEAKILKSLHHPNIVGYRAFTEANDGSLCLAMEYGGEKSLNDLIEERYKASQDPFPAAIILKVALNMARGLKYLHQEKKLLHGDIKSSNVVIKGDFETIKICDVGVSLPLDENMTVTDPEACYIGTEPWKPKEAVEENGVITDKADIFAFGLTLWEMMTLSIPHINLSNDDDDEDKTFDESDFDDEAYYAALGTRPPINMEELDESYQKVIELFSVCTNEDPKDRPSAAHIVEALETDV

JAK2 JH1 JH2 (human) = JAK2 JH1 JH2 (human) (UniProt O60674)
PKN2 (human) = PKN2 (human) (UniProt Q16513)
MAPKAPK3 (human) = MAPKAPK3 (human) (UniProt Q16644)
HIPK3 (human) = HIPK3 (human) (UniProt Q9H422)
PLK2 (human) = PLK2 (human) (UniProt Q9NYY3)
CDK3 CCNE1 (human) = CDK3 CCNE1 (human) (UniProt Q00526+P24864)
WNK2 (human) = WNK2 (human) (UniProt Q9Y3S1)
Chain of WNK2 (human) (Q9Y3S1 whole entry, looked up): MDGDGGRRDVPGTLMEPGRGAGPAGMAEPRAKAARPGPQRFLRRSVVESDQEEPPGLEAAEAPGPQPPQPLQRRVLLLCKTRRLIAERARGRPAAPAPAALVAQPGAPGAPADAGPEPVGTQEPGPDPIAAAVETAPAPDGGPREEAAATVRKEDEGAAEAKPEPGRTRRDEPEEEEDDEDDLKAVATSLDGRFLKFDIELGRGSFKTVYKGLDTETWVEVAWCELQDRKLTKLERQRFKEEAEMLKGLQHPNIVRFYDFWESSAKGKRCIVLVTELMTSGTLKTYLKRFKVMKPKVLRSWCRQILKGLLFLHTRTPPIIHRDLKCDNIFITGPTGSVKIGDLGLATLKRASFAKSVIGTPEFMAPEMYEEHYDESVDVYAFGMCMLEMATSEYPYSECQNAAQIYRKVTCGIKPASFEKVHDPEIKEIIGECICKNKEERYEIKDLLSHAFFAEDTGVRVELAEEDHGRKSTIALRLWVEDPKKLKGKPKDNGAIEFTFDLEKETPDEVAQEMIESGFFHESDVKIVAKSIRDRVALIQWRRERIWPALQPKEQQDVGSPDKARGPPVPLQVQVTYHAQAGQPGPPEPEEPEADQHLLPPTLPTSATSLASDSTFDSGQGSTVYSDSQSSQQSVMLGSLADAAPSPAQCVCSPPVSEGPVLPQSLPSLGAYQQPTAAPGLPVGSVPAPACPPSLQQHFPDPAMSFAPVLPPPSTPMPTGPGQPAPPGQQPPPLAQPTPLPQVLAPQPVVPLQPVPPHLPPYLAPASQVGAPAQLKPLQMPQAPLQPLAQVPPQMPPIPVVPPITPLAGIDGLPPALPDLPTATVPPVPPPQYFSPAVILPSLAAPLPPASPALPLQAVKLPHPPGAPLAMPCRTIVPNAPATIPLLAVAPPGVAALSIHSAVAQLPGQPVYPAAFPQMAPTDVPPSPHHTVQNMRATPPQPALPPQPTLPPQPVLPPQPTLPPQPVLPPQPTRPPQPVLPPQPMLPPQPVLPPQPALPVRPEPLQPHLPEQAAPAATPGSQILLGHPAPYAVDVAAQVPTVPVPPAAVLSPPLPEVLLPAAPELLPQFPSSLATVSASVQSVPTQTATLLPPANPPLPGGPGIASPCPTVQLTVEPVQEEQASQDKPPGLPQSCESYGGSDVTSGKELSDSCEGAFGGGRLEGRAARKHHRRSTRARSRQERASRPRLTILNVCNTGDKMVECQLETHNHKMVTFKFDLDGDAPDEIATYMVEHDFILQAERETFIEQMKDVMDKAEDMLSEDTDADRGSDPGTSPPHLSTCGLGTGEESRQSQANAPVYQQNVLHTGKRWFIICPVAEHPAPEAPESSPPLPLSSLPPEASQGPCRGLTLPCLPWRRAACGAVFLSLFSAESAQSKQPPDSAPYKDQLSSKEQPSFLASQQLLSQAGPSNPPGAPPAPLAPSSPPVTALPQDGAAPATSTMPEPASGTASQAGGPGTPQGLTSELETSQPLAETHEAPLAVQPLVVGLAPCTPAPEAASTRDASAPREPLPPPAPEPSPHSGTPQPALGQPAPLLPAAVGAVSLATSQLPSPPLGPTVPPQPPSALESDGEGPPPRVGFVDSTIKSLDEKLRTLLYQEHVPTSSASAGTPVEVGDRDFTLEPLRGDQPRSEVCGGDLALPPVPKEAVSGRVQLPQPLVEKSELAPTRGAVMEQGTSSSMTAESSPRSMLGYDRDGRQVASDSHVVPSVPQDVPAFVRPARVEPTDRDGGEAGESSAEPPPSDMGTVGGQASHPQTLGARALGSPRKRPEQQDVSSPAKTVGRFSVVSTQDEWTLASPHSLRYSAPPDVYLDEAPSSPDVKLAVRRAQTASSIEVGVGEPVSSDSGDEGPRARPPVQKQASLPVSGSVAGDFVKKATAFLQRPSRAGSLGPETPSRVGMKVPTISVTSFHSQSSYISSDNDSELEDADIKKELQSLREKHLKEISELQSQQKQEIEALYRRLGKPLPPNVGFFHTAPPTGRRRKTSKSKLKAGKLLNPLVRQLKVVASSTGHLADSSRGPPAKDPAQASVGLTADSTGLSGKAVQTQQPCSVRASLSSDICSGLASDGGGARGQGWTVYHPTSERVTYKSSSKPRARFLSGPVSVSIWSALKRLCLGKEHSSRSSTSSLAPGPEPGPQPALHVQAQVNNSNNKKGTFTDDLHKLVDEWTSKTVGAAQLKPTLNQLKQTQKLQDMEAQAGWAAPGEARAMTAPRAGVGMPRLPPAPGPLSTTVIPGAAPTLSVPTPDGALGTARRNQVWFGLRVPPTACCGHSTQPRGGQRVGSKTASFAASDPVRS

MARK4 (human) = MARK4 (human) (UniProt Q96L34)
Chain of MARK4 (human) (Q96L34 whole entry, looked up): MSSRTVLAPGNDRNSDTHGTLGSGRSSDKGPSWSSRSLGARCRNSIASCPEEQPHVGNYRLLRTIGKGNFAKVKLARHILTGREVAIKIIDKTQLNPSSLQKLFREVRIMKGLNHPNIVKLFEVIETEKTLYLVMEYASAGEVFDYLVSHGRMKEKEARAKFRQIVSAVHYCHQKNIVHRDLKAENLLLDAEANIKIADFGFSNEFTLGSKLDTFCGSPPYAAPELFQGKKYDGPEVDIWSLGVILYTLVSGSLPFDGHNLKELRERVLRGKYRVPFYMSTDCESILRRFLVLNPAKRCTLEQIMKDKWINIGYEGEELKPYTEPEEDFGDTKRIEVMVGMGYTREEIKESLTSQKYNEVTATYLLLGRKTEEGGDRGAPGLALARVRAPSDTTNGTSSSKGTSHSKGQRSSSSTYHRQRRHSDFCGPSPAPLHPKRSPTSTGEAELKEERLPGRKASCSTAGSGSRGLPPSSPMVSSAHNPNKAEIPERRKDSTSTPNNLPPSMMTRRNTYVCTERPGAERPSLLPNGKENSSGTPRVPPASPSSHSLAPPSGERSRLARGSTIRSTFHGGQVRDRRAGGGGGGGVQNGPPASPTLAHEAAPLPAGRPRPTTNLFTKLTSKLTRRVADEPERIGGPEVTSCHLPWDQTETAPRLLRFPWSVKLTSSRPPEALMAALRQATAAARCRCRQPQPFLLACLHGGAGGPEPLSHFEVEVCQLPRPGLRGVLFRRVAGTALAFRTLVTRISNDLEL

LTK (human) = LTK (human) (UniProt P29376)
Chain of LTK (human) (P29376 whole entry, looked up): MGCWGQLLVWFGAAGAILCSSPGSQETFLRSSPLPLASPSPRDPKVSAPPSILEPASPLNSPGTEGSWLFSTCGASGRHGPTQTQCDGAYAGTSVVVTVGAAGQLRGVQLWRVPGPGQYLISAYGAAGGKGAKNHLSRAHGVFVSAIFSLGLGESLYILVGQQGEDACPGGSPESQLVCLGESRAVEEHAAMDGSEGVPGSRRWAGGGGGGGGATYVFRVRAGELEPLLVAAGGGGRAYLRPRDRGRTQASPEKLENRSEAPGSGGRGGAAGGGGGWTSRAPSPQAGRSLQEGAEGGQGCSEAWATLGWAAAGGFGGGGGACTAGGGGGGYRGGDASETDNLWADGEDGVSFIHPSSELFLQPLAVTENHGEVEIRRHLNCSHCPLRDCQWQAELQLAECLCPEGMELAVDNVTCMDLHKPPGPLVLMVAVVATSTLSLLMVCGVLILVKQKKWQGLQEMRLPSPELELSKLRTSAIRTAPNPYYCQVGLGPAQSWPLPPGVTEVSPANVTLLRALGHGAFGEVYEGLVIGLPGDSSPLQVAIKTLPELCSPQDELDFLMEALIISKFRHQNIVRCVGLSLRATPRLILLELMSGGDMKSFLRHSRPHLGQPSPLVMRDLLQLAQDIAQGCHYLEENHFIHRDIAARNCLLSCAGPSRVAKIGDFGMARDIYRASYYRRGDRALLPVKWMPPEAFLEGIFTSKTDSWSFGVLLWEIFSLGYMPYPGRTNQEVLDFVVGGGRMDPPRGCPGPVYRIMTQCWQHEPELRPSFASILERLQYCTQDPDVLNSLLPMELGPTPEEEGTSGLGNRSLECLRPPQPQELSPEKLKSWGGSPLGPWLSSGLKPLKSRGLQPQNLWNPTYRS

CSNK1G2 (human) = CSNK1G2 (human) (UniProt P78368)
Chain of CSNK1G2 (human) (P78368 whole entry, looked up): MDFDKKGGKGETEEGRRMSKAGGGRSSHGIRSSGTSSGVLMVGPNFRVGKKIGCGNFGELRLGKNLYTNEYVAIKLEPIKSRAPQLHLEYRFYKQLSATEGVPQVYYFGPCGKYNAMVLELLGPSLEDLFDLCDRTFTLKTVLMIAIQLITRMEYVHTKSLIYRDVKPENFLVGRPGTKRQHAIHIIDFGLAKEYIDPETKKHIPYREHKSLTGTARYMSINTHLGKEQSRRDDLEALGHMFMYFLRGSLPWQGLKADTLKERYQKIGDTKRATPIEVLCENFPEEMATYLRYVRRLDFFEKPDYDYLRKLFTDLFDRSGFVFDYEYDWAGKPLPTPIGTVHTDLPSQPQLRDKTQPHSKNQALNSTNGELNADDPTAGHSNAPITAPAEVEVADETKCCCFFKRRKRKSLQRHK

FES (human) = FES (human) (UniProt P07332)
RIPK2 (human) = RIPK2 (human) (UniProt O43353)
BLK (human) = BLK (human) (UniProt P51451)
DCLK2 (human) = DCLK2 (human) (UniProt Q8N568)
PNCK (human) = PNCK (human) (UniProt Q6P2M8)
[1] = tested on: SGK1 (human), O00141 [S422D]
WEE1 (human) = WEE1 (human) (UniProt P30291)
KDR (human) = KDR (human) (UniProt P35968)
DAPK1 (human) = DAPK1 (human) (UniProt P53355)
[2] = target: TYK2 JH1 catalytic (human) (UniProt P29597)
PRKCG (human) = PRKCG (human) (UniProt P05129)
MARK2 (human) = MARK2 (human) (UniProt Q7KZI7)
SGK2 (human) = SGK2 (human) (UniProt Q9HBY8)
KIT (human) = KIT (human) (UniProt P10721)
MAP3K10 (human) = MAP3K10 (human) (UniProt Q02779)
PIM2 (human) = PIM2 (human) (UniProt Q9P1W9)
Chain of PIM2 (human) (Q9P1W9 whole entry, looked up): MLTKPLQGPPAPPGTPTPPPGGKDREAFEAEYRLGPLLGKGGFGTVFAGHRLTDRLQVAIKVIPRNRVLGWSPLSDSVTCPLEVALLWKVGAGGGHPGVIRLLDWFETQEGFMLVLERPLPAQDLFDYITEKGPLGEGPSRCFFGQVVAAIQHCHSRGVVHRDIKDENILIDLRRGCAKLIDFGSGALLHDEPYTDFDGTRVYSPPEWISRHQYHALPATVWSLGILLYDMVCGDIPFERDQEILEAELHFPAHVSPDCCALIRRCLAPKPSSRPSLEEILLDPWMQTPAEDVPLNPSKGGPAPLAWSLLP

CAMK2A (human) = CAMK2A (human) (UniProt Q9UQM7)
PTK2 (human) = PTK2 (human) (UniProt Q05397)
FLT3 (human) = FLT3 (human) (UniProt P36888)
PIM1 (human) = PIM1 (human) (UniProt P11309)
STK3 (human) = STK3 (human) (UniProt Q13188)
PDGFRA (human) = PDGFRA (human) (UniProt P16234)

O=c1c2ccccc2[nH]c(=S)n1CCN1CCC(=C(c2ccc(F)cc2)c2ccc(F)cc2)CC1
residual activity (CAMK2G (human)): 97.9% | residual activity (MAPK12 (human)): 99% | residual activity (GSK3A (human)): 104% | residual activity (OXSR1 (human)): 115% | residual activity (DMPK (human)): 108% | residual activity (AKT1 (human)): 98.3% | residual activity (CDC42BPB (human)): 106% | residual activity (PIM3 (human)): 108% | residual activity (SRPK3 (human)): 102% | residual activity (PBK (human)): 107% | residual activity (JAK2 JH1 JH2 (human)): 92% | residual activity (PKN2 (human)): 97.2% | residual activity (MAPKAPK3 (human)): 109% | residual activity (HIPK3 (human)): 97.7% | residual activity (PLK2 (human)): 104% | residual activity (CDK3 CCNE1 (human)): 100% | residual activity (WNK2 (human)): 96.3% | residual activity (MARK4 (human)): 102% | residual activity (LTK (human)): 97.9% | residual activity (CSNK1G2 (human)): 98.6% | residual activity (FES (human)): 94.9% | residual activity (RIPK2 (human)): 93.1% | residual activity (BLK (human)): 102% | residual activity (DCLK2 (human)): 101% | residual activity (PNCK (human)): 109% | residual activity [1]: 96% | residual activity (WEE1 (human)): 93% | residual activity (KDR (human)): 93.1% | residual activity (DAPK1 (human)): 93.8% | residual activity [2]: 107% | residual activity (PRKCG (human)): 100% | residual activity (MARK2 (human)): 108% | residual activity (SGK2 (human)): 99.1% | residual activity (KIT (human)): 103% | residual activity (MAP3K10 (human)): 99.6% | residual activity (PIM2 (human)): 129% | residual activity (CAMK2A (human)): 105% | residual activity (PTK2 (human)): 105% | residual activity (FLT3 (human)): 104% | residual activity (PIM1 (human)): 105% | residual activity (STK3 (human)): 102% | residual activity (PDGFRA (human)): 97%

Cn1cc(/C=C2\C(=O)Nc3ccc(S(N)(=O)=O)cc32)c2ccccc21
residual activity (CAMK2G (human)): 91.9% | residual activity (MAPK12 (human)): 101% | residual activity (GSK3A (human)): 100% | residual activity (OXSR1 (human)): 93.7% | residual activity (DMPK (human)): 106% | residual activity (AKT1 (human)): 105% | residual activity (CDC42BPB (human)): 114% | residual activity (PIM3 (human)): 91.6% | residual activity (SRPK3 (human)): 88.5% | residual activity (PBK (human)): 99.6% | residual activity (JAK2 JH1 JH2 (human)): 58.4% | residual activity (PKN2 (human)): 81.8% | residual activity (MAPKAPK3 (human)): 91.5% | residual activity (HIPK3 (human)): 105% | residual activity (PLK2 (human)): 104% | residual activity (CDK3 CCNE1 (human)): 90.3% | residual activity (WNK2 (human)): 97.7% | residual activity (MARK4 (human)): 40.6% | residual activity (LTK (human)): 54.5% | residual activity (CSNK1G2 (human)): 100% | residual activity (FES (human)): 57.4% | residual activity (RIPK2 (human)): 74.3% | residual activity (BLK (human)): 42.9% | residual activity (DCLK2 (human)): 93.2% | residual activity (PNCK (human)): 58.1% | residual activity [1]: 71.8% | residual activity (WEE1 (human)): 82.3% | residual activity (KDR (human)): 74.3% | residual activity (DAPK1 (human)): 98.9% | residual activity [2]: 35% | residual activity (PRKCG (human)): 106% | residual activity (MARK2 (human)): 45.5% | residual activity (SGK2 (human)): 80.7% | residual activity (KIT (human)): 68.2% | residual activity (MAP3K10 (human)): 95.9% | residual activity (PIM2 (human)): 101% | residual activity (CAMK2A (human)): 57.6% | residual activity (PTK2 (human)): 94.1% | residual activity (FLT3 (human)): 1.56% | residual activity (PIM1 (human)): 96.5% | residual activity (STK3 (human)): 23.4% | residual activity (PDGFRA (human)): 81%
